Laboratory results as given in patent US10365286B2, “Chromophoric structures for lanthanide chelates” (RADIOMETER TURKU OY, priority 2014, dated 2019).

Tests used:
[1] = Luminescence measurements of Eu(III) chelates with the ligands; format: physicochemical; conditions: Eu(III) complex of the ligand; 10 mM NH3-HCl buffer, pH 8.3
Description: FC=Flash chromatography. RT=room temperature. Microwave synthesizer was Initiator system (Biotage). ^1H NMR and ^13C NMR spectra were recorded on a Bruker AVANCE 500 DRX (Bruker, Karlsruhe, Germany) by using SiMe4 as internal standard and chemical shifts δ are in ppm. Mass spectra were recoded on a Voyager DE Pro (Applied Biosystems, Foster City, Calif.) mass spectrometer. HPLC runs were performed by Dionex's Ultimate 3000 system including Dionex's Ultimate 3000 Diode Array Detector. The used column was ThermoHypersil 150×4 mm 5μ Hypersil® ODS. Used eluents were 100 mM TEAA and CH3CN. Runs were performed by using an eluent gradient starting from 75% H2O, 20% 100 mM TEAA and 5% CH3CN and within 30 min to 30% H2O, 20% TEAA and 50% CH3CN. For the HPLC, sample concentration was aprox. 1 mg of chelate in 1 ml water. The sampling volume was 20-25 μl. The instrumentation, measurement and calculation principles for the molar absorptivities (ε), excitation maxima (λexc), luminescence lifetimes (τ), quantum yields (Φ), and triplet stage energies (T) see e.g. Räsänen, M., et al., 2014, J. Luminescence, 146, 211-217.
The luminescence parameters for Eu(III) complexes with ligands 11, 12, 14, 27, 28, and 35 were measured in 10 mM NH3-HCl buffer, pH 8.3. The molar absorptivities (c), excitation maxima (λexc ), luminescence lifetimes (τ), quantum yields (Φ), calculated luminescence yields (ε×Φ) and triplet stage (T) are presented in Table 1.

[2] = system: cTnI; experiment: Model cTnI immunoassay with chelate-labelled detection antibodies; conditions: for Abs max: antibody labelled with the chelate
Description: Labeling was performed in 10 mM botate buffer, pH 8.6-9.0 using 30-fold molar excess of chelates. Reactions were normally carried out overnight at +4° C. or at room temperature. Labeled antibodies were purified on Superfex 200 HR 10/30 or Superdex 200 HiLoad 26/60 gel filtration columns using Tris-saline-azide […], 9.0 g/L NaCl, and 0.5 g/L NaN3), pH 7.75 as an elution buffer. The fractions containing the antibody were pooled and the europium concentrations measured against europium calibrator. The purified antibody comjugate and the labeling ratio (i.e. chelates per protein) were quantified by calculating the protein yield or by measureing the absorbance at 280 nm and subtracting the absorption caused by the added chelate.
An earlier published nine dentate label {2,2′,2″,2′″-{[2-(4-isothiocyanato-phenyl)ethylimino]bis(methylene)bis{4-{[4-(α-galactopyranoxy)phenyl]ethynyl}-pyridine-bis(methylenenitrilo)}tetrakis(acetato)}europium(III) (von Loden, P., et al., 2003, Anal. Chem. 75, 3193) was used as a reference label.
Two labels 49 and 54 were tested in a model cTnl assay. The cTnl immunoassays were performed by using biotinylated capture cTnl antibodies together with the labelled cTnl detection antibodies described above and according to the main principles described in published method (von Loden, P., et al., 2003, Anal. Chem. 75, 3193). The combined assay/wash buffer contained 5 mmol HEPES, 2.1 g/L NaCl, 0.1 mmol EDTA, 0.055 g/L Tween 20 and 1 g/L Gernall II, pH 7.75. The capture biotinylated antibodies were pre-incubated in assay wells. The standards followed by the detection label antibody diluted in 20 μl and 10 μl assay buffer, respectively, were applied to the wells. After one hour incubation at 36 C, the wells were washed, dried and measured.

[3] = Photo-physical properties of chelates conjugated to taurine; format: physicochemical; conditions: 50 mM TRIS buffer (pH 7.75)
Description: The prepared isothiocyante activated chelates (65 and 79) were conjugated to taurine as described above in Example 68. The products were purified with semi-preparative reversed phase HPLC (RP-18 column). After the product fractions were evaporated the residues were dissolved in 50 mM TRIS buffer.
The measured photo-physical properties excitation wavelengths (λexc), luminescence decay times (τ), molar absorptivities (ε), estimated luminescence yields (εΦ) of the novel chelates (66 and 80) in 50 mM TRIS buffer (pH 7.75) are in the Table 3. The nine dentate label {2,2′,2″,2′″-{[2-(4-isothiocyanato-phenyl)ethylimino]bis(methylene)bis{4-{[4-(α-galactopyranoxy)phenyl]-ethynyl}bis(methylenenitrilo)}tetrakis(acetato)}-europium(III) (von Loden, P., et al., 2003, Anal. Chem. 75, 3193) was used as a reference label.

[4] = Photo-physical properties of cTnI antibodies labelled with chelate; format: physicochemical
Description: The Tnl labeled antibodies were prepared as described in Example 61.
The measured photo-physical properties gave the excitation wavelengths (λexc)at 354 nm, a luminescence decay times (τ) of 460 μs molar absorptivities (c) of 142 000 cm^−1M^−1 and luminescence yields (εΦ) of 10 500 cm^−1M^− for the labelled cTnls with the chelate 66 in 50 mM TRIS buffer (pH 7.75)
Dry measurements gave the luminescence yield of 16 500 cm^−1M^−1, which represents estimated luminescence yields based on the signal measurements after dry immunoassay done as described in the Example 61.

[5] = labelled cTnI antibodies, 50 mM TRIS buffer (pH 7.75)

calculated luminescence yield ε × Φ [1]	excitation maximum λexc [1]	luminescence lifetime τ [1]	molar absorptivity ε [1]	quantum yield Φ [1]	triplet stage T [1]	SMILES	also measured
4 800 cm^−1M^−1	323 nm	380 μs	104 000 cm^−1M^−1	0.046	20 000 cm^−1	O=C(O)CN(CC(=O)O)Cc1cc(-c2ccc3c(c2)Cc2ccccc2-3)cc(CN(CC(=O)O)CC(=O)O)n1 [Compound 11]	–
3 500 cm^−1M^−1	328 nm	390 μs	35 000 cm^−1M^−1	0.10	20 100 cm^−1	O=C(O)CN(CC(=O)O)Cc1cc(-c2ccc3c(c2)C(CC(=O)O)(CC(=O)O)c2ccccc2-3)cc(CN(CC(=O)O)CC(=O)O)n1 [Compound 12]	–
4 200 cm^−1M^−1	342 nm	355 μs	38 200 cm^−1M^−1	0.11	19 200 cm^−1	O=C(O)CN(CC(=O)O)Cc1cc(C#Cc2ccc3c(c2)C(CC(=O)O)(CC(=O)O)c2ccccc2-3)cc(CN(CC(=O)O)CC(=O)O)n1 [Compound 14]	–
–	–	–	–	–	–	O=C([O-])CN(CC(=O)[O-])Cc1cc(C#Cc2ccc3c(c2)C(CC(=O)[O-])(CC(=O)[O-])c2ccccc2-3)cc(CN(CCc2ccc(N=C=S)cc2)Cc2cc(C#Cc3ccc4c(c3)C(CC(=O)[O-])(CC(=O)[O-])c3ccccc3-4)cc(CN(CC(=O)[O-])CC(=O)[O-])n2)n1.[Eu+3].[Na+].[Na+].[Na+].[Na+].[Na+] [Compound 49]	Abs max ([2]; First test): 348 nm; excitation after coupled in protein ([2]; label coupled to protein, broad excitation): around 350 nm
–	–	–	–	–	–	O=C([O-])CN(CC(=O)[O-])Cc1cc(-c2ccc3c(c2)C(CC(=O)[O-])(CC(=O)[O-])c2ccccc2-3)cc(CN(CCc2ccc(N=C=S)cc2)Cc2cc(-c3ccc4c(c3)C(CC(=O)[O-])(CC(=O)[O-])c3ccccc3-4)cc(CN(CC(=O)[O-])CC(=O)[O-])n2)n1.[Eu+3].[Na+].[Na+].[Na+].[Na+].[Na+] [Compound 54]	Abs max ([2]; Second test): 327 nm
–	–	–	–	–	–	O=C([O-])COc1cc(NC(=S)NCCS(=O)(=O)[O-])ccc1C#Cc1cc(CN(CC(=O)[O-])Cc2cc(C#Cc3ccc4c(c3)C(CC(=O)[O-])(CC(=O)[O-])c3ccccc3-4)cc(C(=O)[O-])n2)nc(CN(CC(=O)[O-])Cc2cc(C#Cc3ccc4c(c3)C(CC(=O)[O-])(CC(=O)[O-])c3ccccc3-4)cc(C(=O)[O-])n2)c1.[Eu+3].[Na+].[Na+].[Na+].[Na+].[Na+].[Na+].[Na+] [Compound 66]	estimated luminescence yield ε x Φ [3]: 8 700 cm^−1M^−1; excitation wavelength λexc [3]: 346 nm; luminescence decay time τ [3]: 540 μs; molar absorptivity ε [3]: 100 000 cm^−1M^−1; luminescence yield, dry measurements ([4]; estimated from signal measurements after dry immunoassay): 16 500 cm^−1M^−1; excitation wavelength λexc [4, 5]: 354 nm; luminescence decay time τ [4, 5]: 460 μs; luminescence yield εΦ [4, 5]: 10 500 cm^−1M^−; molar absorptivity [4, 5]: 142 000 cm^−1M^−1
–	–	–	–	–	–	O=C([O-])COc1cc(OCC(=O)[O-])c(C#Cc2cc(CN(CC(=O)[O-])Cc3cc(C#Cc4ccc5c(c4)C(CC(=O)[O-])(CC(=O)[O-])c4cc(NC(=S)NCCS(=O)(=O)[O-])ccc4-5)cc(CN(CC(=O)[O-])Cc4cc(C#Cc5c(OCC(=O)[O-])cc(OCC(=O)[O-])cc5OCC(=O)[O-])cc(C(=O)[O-])n4)n3)nc(C(=O)[O-])c2)c(OCC(=O)[O-])c1.[Eu+3].[Na+].[Na+].[Na+].[Na+].[Na+].[Na+].[Na+].[Na+].[Na+].[Na+] [Compound 80]	estimated luminescence yield ε x Φ [3]: 5 600 cm^−1M^−1; excitation wavelength λexc [3]: 354 nm; luminescence decay time τ [3]: 290 μs; molar absorptivity ε [3]: 105 000 cm^−1M^−1
1 800 cm^−1M^−1	293 nm	385 μs	26 950 cm^−1M^−1	0.067	21 600 cm^−1	O=C(O)CN(CC(=O)O)Cc1cc(C#Cc2ccccc2)cc(CN(CC(=O)O)CC(=O)O)n1 [Ref ligand, 2,2′,2″,2′″-[(4-phenylethynylpyridine-2,6-diyl)bis(methylenenitrilo)]tetrakis-(acetic acid), reference compound]	–
